According to ChEMBL document CHEMBL1148828, “Deoxycholic acid-derived tetraoxane antimalarials and antiproliferatives(1)” (J Med Chem, 2007):
Active and inactive are the calls of the source. No cut-off for these calls is given here.

How the values were obtained:
Liver microsomes = assay: (§1) Metabolic stability in human liver microsomes; type: ADME, Microsome; details: microsomes
MDA-MB-435 = assay: Antiproliferative activity against human MDA-MB-435 cells after 48 hrs; type: functional
Plasmodium falciparum [1] = assay: Antimalarial activity against Plasmodium falciparum D6; type: functional, organism-based
NCI-H322M = assay: Antiproliferative activity against human NCI-H322M cells after 48 hrs; type: functional
Plasmodium falciparum [2] = assay: Antimalarial activity against Plasmodium falciparum W2; type: functional, organism-based
Mus musculus [3] = species on record: Mus musculus; assay: (§2) Toxicity in Plasmodium berghei KBG 173 infected CD1 mice (Mus musculus); type: organism-based; details: mouse, in vivo
[4] = Metabolic stability in mouse liver microsomes; type: ADME, Microsome; details: liver microsomes
NCI = assay: Growth inhibition of human NCI DTP 60 cells; type: functional
OVCAR-3 = assay: Antiproliferative activity against human OVCAR-3 cells after 48 hrs; type: functional; details: OVCAR-3, 48 h
Mus musculus [5] = assay: Survival of Plasmodium berghei KBG 173 infected CD1 mice (Mus musculus) at 20 mg/kg/day; type: ADME, organism-based; details: in vivo
Plasmodium falciparum [6] = assay: Antimalarial activity against Plasmodium falciparum TM91C235; type: functional, organism-based
CAKI-1 = assay: Antiproliferative activity against human CAKI1 cells after 48 hrs; type: functional; details: CAKI-1, 48 h
Mus musculus [7] = assay: Survival of Plasmodium berghei KBG 173 infected CD1 mice (Mus musculus) at 40 mg/kg/day; type: ADME, organism-based; details: in vivo
LOX IMVI = assay: Antiproliferative activity against human LOX IMVI cells after 48 hrs; type: functional
CCRF-CEM = assay: Antiproliferative activity against human CCRF-CEM cells after 48 hrs; type: functional
[8] = as §1; type: ADME, Microsome; details: liver microsomes
HCT-116 = assay: Antiproliferative activity against human HCT116 cells after 48 hrs; type: functional; details: HCT-116, 48 h; for CC50: read-out: LC50 (the source's name)
[9] = as §2; type: organism-based; details: CD1, mouse, in vivo
Mus musculus [10] = assay: Survival of Plasmodium berghei KBG 173 infected CD1 mice (Mus musculus) at 10 mg/kg/day; type: ADME, organism-based; details: in vivo
Mus musculus [11] = assay: Survival of Plasmodium berghei KBG 173 infected CD1 mice (Mus musculus) at 80 mg/kg/day; type: ADME, organism-based; details: in vivo
SF-268 = assay: Antiproliferative activity against human SF268 cells after 48 hrs; type: functional; details: SF-268, 48 h
Plasmodium berghei [12] = assay: Antimalarial activity as survivors after 31 days in Plasmodium berghei KBG173 infected CD1 mice (Mus musculus) at 320 mg/kg/day; type: functional, organism-based; details: KBG 173
Mus musculus [13] = assay: Survival of Plasmodium berghei KBG 173 infected CD1 mice (Mus musculus) at 320 mg/kg/day; type: ADME, organism-based; details: in vivo
HOP-62 = assay: Antiproliferative activity against human HOP62 cells after 48 hrs; type: functional; details: HOP-62, 48 h
Plasmodium berghei [14] = assay: Antimalarial activity as survivors after 31 days in Plasmodium berghei KBG173 infected CD1 mice (Mus musculus) at 10 mg/kg/day; type: functional, organism-based; details: KBG 173
U-251 = assay: Antiproliferative activity against human U251 cells after 48 hrs; type: functional; details: U-251, 48 h
Mus musculus [15] = assay: Survival of Plasmodium berghei KBG 173 infected CD1 mice (Mus musculus) at 160 mg/kg/day; type: ADME, organism-based; details: in vivo
M14 = assay: Antiproliferative activity against human M14 cells after 48 hrs; type: functional; details: M14, 48 h, read-out: LC50 (the source's name)
HCT-15 = assay: Antiproliferative activity against human HCT15 cells after 48 hrs; type: functional; details: HCT-15, 48 h
786-0 = assay: Antiproliferative activity against human 786-0 cells after 48 hrs; type: functional; details: Homo sapiens, 786-0, 48 h
HCC 2998 = assay: Antiproliferative activity against human HCC2998 cells after 48 hrs; type: functional; details: HCC 2998, 48 h
T47D = assay: Antiproliferative activity against human T47D cells after 48 hrs; type: functional
COLO 205 = assay: Antiproliferative activity against human COLO205 cells after 48 hrs; type: functional
[16] = read-out: LC50 (the source's name)
[17] = Plasmodium falciparum, TM91C235

## CC(=O)O[C@H]1C[C@H]2[C@@H]([C@H](OC(C)=O)C[C@@H]3CC4(CC[C@@]32C)OOC2(CCC(C)CC2)OO4)[C@@H]2CC[C@H]([C@H](C)CCC(=O)NCCN(C)C)[C@@]12C (stereo in doubt; 22)
Liver microsomes
  t1/2: 42 min
MDA-MB-435
  GI50: 1530 nM
  TGI: 2910 nM
MDA-MB-435; Homo sapiens, MDA-MB-435, 48 h, read-out: LC50 (the source's name)
  CC50: 5520 nM
Plasmodium falciparum [1]
  IC50: 18.6 nM
  IC90: 27.8 nM
NCI-H322M
  GI50: 1460 nM
  TGI: 2790 nM
NCI-H322M; [16]
  CC50: 5340 nM
Plasmodium falciparum [2]
  IC50: 16.7 nM
  IC90: 24.8 nM
Mus musculus [3]
  MCD: 40 mg/kg/day
[4]
  half-life: 77 min
NCI
  GI50: 180 nM
OVCAR-3
  GI50: 1190 nM
  TGI: 2470 nM
OVCAR-3; [16]
  CC50: 5110 nM
Mus musculus [5]
  Survival: 9 days
Plasmodium falciparum [6]
  IC50: 12.2 nM
  IC90: 18.5 nM
CAKI-1
  GI50: 1370 nM
  TGI: 2690 nM
CAKI-1; [16]
  CC50: 5290 nM
Mus musculus [7]
  Survival: 19 days
LOX IMVI
  GI50: 183 nM
CCRF-CEM
  GI50: 258 nM
  TGI: 725 nM

## CC(=O)O[C@H]1C[C@H]2[C@@H]([C@H](OC(C)=O)C[C@@H]3CC4(CC[C@@]32C)OOC2(CCCCC2)OO4)[C@@H]2CC[C@H]([C@H](C)CCC(=O)NCCN(C)C)[C@@]12C
[8]
  half-life: 40 min
HCT-116
  GI50: 83.1 nM
  TGI: 1690 nM
  CC50: 4620 nM
Plasmodium falciparum [1]; Plasmodium falciparum, D6
  IC50: 28.2 nM
  IC90: 45.1 nM
Plasmodium falciparum [2]; Plasmodium falciparum, W2
  IC50: 14.5 nM
  IC90: 45.1 nM
[9]
  MTD: > 960 mg/kg
Mus musculus [3]
  MCD: <= 40 mg/kg/day
Mus musculus [10]
  Survival: 8 days
[4]
  half-life: 40 min
NCI; Homo sapiens, NCI
  GI50: < 10 nM
Mus musculus [11]
  Survival: 25 days
Plasmodium falciparum [6]; [17]
  IC50: 19.6 nM
  IC90: 37.9 nM
SF-268
  GI50: 785 nM
  TGI: 2250 nM
SF-268; [16]
  CC50: 5350 nM
Plasmodium berghei [12]
  Activity: Active
Mus musculus [7]
  Survival: 21 days
LOX IMVI; Homo sapiens, LOX IMVI, 48 h
  GI50: < 10 nM
  LC50 (concentration killing 50% of cells): 68.8 nM
  TGI: 22.4 nM
Mus musculus [13]
  Survival: 31 days
HOP-62
  GI50: < 10 nM
  LC50: 83 nM
  TGI: 16.6 nM
Plasmodium berghei [14]
  Activity: inactive

## CC(=O)O[C@H]1C[C@H]2[C@@H](CC[C@@H]3CC4(CC[C@@]32C)OOC2(CCC(C)CC2)OO4)[C@@H]2CC[C@H]([C@H](C)CCC(=O)NCCN(C)C)[C@@]12C (stereo in doubt; 16)
[8]
  half-life: 110 min
U-251
  GI50: 26 nM
  TGI: 87 nM
HCT-116
  GI50: 9 nM
  TGI: 21 nM
  CC50: 47 nM
Mus musculus [15]
  Survival: 29 days
Plasmodium falciparum [1]
  IC50: 12.8 nM
  IC90: 18.7 nM
M14
  CC50: 460 nM
HCT-15
  GI50: 94 nM
Plasmodium falciparum [2]
  IC50: 16.8 nM
  IC90: 19.8 nM
786-0
  GI50: 60 nM
  TGI: 150 nM
786-0; [16]
  CC50: 390 nM
HCC 2998
  GI50: 77 nM
  TGI: 210 nM
HCC 2998; [16]
  CC50: 980 nM
[4]
  half-life: > 120 min
T47D
  GI50: 130 nM
  TGI: 410 nM
Plasmodium falciparum [6]
  IC50: 14.7 nM
  IC90: 24.2 nM
Mus musculus [7]
  Survival: 9 days
LOX IMVI
  LC50 (concentration killing 50% of cells): 22 nM
LOX IMVI; Homo sapiens, LOX IMVI, 48 h
  GI50: < 5 nM
  TGI: 7.4 nM
CCRF-CEM
  GI: 0.056 µM
CCRF-CEM; Homo sapiens, CCRF-CEM, 48 h
  LC50 (concentration killing 50% of cells): 500 nM
  TGI: 170 nM
HOP-62
  GI50: 54 nM
  LC50: 1160 nM
  TGI: 230 nM
COLO 205
  GI: 0.083 µM
COLO 205; Homo sapiens, COLO 205, 48 h
  TGI: 20 nM
COLO 205; Homo sapiens, COLO 205, 48 h, read-out: LC50 (the source's name)
  CC50: 490 nM
